For data set [1], the system named is zebrafish embryos. The data set is described as follows: Acute toxicity in zebrafish embryos. Format: in vivo. The procedure: To perform the test of acute toxicity, a total of 20 fertilized zebrafish embryos were collected at around 4 h after fertilization and added to each well in a 12-well plate. […] Incubation of the plate then took place until 48 h after fertilization at a temperature of 28.5 ± 1 °C. The test solutions were refreshed at 24 h after fertilization to allow the counting and removal of any dead embryos. Following exposure, a stereomicroscope (SZX16, Olympus, Japan) was used to record the embryo morphological effects. Meanwhile, a slightly modified version of a previously described melanin inhibitory assay was carried out[30]. The embryos were then homogenized using a cold lysis buffer (PBS pH 7.4, 1% Triton-X and 1% DMSF). The lysate then underwent 10 min of sonication before being placed in a centrifuge for 5 min at 10,000×g. The pellet was then removed from the centrifuge and dissolved in 200 µL of 1 N NaOH for 1 h at a temperature of 85 °C. This sample was subsequently vortexed and placed in the centrifuge for a further 5 min at 10,000×g. A microplate reader (Spectramax M5, Molecular Devices, USA) was then employed to determine the supernatant absorbance at 490 nm. Melanin content levels could then by calibrated by using the protein amount, and were reported in the form of a percentage compared to the untreated control. In the melanin inhibitory assay, the positive control used was phenylthiourea (PTU) solution (0.0015%).

In data set [2] the test system is zebrafish embryos. The experiment in a line: Melanin inhibitory assay in zebrafish embryos. It counts as in vivo. As to conditions: 48 h after fertilization, vs control. The method, then: To perform the test of acute toxicity, a total of 20 fertilized zebrafish embryos were collected at around 4 h after fertilization and added to each well in a 12-well plate. These embryos then underwent treatment using different quantities of […] (2, 4, 6, 8, and 10 µM), while the negative control was distilled water and the positive control was 3,4-dichloroaniline. Incubation of the plate then took place until 48 h after fertilization at a temperature of 28.5 ± 1 °C. The test solutions were refreshed at 24 h after fertilization to allow the counting and removal of any dead embryos. Following exposure, a stereomicroscope (SZX16, Olympus, Japan) was used to record the embryo morphological effects. Meanwhile, a slightly modified version of a previously described melanin inhibitory assay was carried out[30]. The embryos were then homogenized using a cold lysis buffer (PBS pH 7.4, 1% Triton-X and 1% DMSF). The lysate then underwent 10 min of sonication before being placed in a centrifuge for 5 min at 10,000×g. The pellet was then removed from the centrifuge and dissolved in 200 µL of 1 N NaOH for 1 h at a temperature of 85 °C. This sample was subsequently vortexed and placed in the centrifuge for a further 5 min at 10,000×g. A microplate reader (Spectramax M5, Molecular Devices, USA) was then employed to determine the supernatant absorbance at 490 nm. Melanin content levels could then by calibrated by using the protein amount, and were reported in the form of a percentage compared to the untreated control. In the melanin inhibitory assay, the positive control used was phenylthiourea (PTU) solution (0.0015%).

For the next data set, the system named is Mitf. The data set is described as follows: qRT-PCR, Mitf mRNA. The conditions noted are these: B16F10, 48 h. It counts as cell-based, mouse. The method, then: A 6-well plate was used to seed B16F10 cells at 1 × 10^5 cells per well prior to overnight incubation in a 5% CO2 humid atmosphere at 37°C. […] Harvesting was conducted via removal of the supernatant, and the cells were rinsed twice in PBS (phosphate-buffered saline). The PureLink™RNA Mini Kit (Invitrogen™, USA) was then used to extract total RNA in line with the guidance of the manufacturer. RNA concentration was assessed at 260 nm with a NanoDrop 2000 UV-Vis spectrophotometer (Thermo Fisher Scientific, Inc.). Oligo-dT primers and a Precision nanoScript II Reverse Transcription Kit (PrimerDesign, Camberley, UK) were used to perform the reverse transcription of 1 µg of total RNA to cDNA in line with the guidance of the manufacturer. MyGo Pro®Real time PCR apparatus (IT-IS International Ltd., Stokesley, UK) was then used to perform the qRT-PCR assays in which 20 µL of PCR reaction contained 1 µL of cDNA, 7 µL of ultrapure water, 1 µL of each primer […], and 10 µL of 2×qPCRBIO SyGreen Mix (PCR Biosystems Ltd, London, UK). This research made use of the following PCR primers: Gapdh forward 5’-[…]-3’, Gapdh reverse 5’-[…]-3’, Tyr forward 5’-[…]-3’, Tyr reverse 5’-[…]-3’, Trp-1 forward 5’-[…]-3’, Trp-1 reverse 5’-[…]-3’, Trp-2 forward 5’-[…]-3’, Trp-2 reverse 5’-[…]-3’, Mitf forward 5’-[…] − 3’, Mitf reverse 5’-[…]-3’. The initial stage of the process of qRT-PCR amplification was the activation step of thermal treatment where a temperature of 95 °C was used for 2 min, with 45 subsequent cycles comprising 10 s at 95 °C, 20 s at 60 °C, and 30 s at 72 °C, before embarking upon the final melting curve from 60 to 97 °C with 1 min for each step. The relative gene expression level could then be calculated via the cycle threshold (Ct) value, while the role of endogenous control for data normalization was occupied by Gapdh (the housekeeping gene). To calculate relative gene expression, the formula given below can be employed:2 [drawing 2]
where the heightened threshold cycle for the target gene is given as ΔΔCt.

A further data set has as its system B16F10 melanoma cells. The experiment in a line: Melanin content assay in B16F10 cells. Format: cell-based, mouse. The conditions noted are these: VY-9 1.6 µM, 48 h, 405 nm. The procedure: In order to assess melanin content, culture flasks were used to grow B16F10 cells (1 × 10^5 cells/flask) for 24 h. […] Cell harvesting was conducted by trypsinization and the cells were then rinsed twice in cold PBS. The cell pellets were then dissolved in 0.3 mL of 1 N NaOH to produce solutions which were heated to 90 °C for a one-hour period. The lysates were then placed in a centrifuge for 10 min at 3,000 × g whereupon a microplate reader was used to assess the melanin quantity at 405 nm. The protein content in the supernatant was evaluated using the Bradford protein assay with the findings presented in the form of a percentage of the control. Arbutin (0.2 mM) served as the positive control. Each trial was carried out in triplicate, with results presented in the form of mean ± standard deviation.

Entries after “also recorded” stand apart in the source; their conditions may differ. Ends that are not written are not given here.

On to “VDGYPAAGY [VY-9, Val-Asp-Gly-Tyr-Pro-Ala- Ala-Gly-Tyr]”, for which, in the data set on zebrafish embryos [1] (20 µM), the embryo development result was “the development of the embryo was significantly retarded”. In addition, the “embryo survival / malformation” value in the data set with zebrafish embryos [1] (2–10 µM, vs control) is on record as “no significant influence; also recorded: no significant difference in the rates for survival or malformation”. Further, in the data set on zebrafish embryos [1] (zebrafish embryos, to 48 h after fertilization, 28.5 °C), the “no observed effect concentration (NOEC)” value was found to be 10 µM. In addition, the melanin content result in the data set with zebrafish embryos [2] (4 µM) is recorded as “anti-melanogenic effects were observed; also recorded: the lowest among all treatment groups, it did not achieve statistical significance”; in the data set on zebrafish embryos [2] (any concentration (2–10 µM)), “no significant reduction in melanin levels at any concentration”. Moreover, the “Mitf mRNA expression vs control” value in the data set on Mitf (1.6 µM) was “significantly reduced the expression levels of all measured genes”. Moreover, in the data set with Mitf (vs control), the “concentration from which Mitf mRNA expression decreased” value turned out to be 0.2 µM. For the same sequence, the “Mitf mRNA expression vs arbutin” value with Mitf (VY-9 1.6 µM vs arbutin 0.2 mM) is “significantly decreased compared to arbutin”. The “reduction in melanin content” value in the data set on B16F10 melanoma cells is reported as 52.31%.

The values above are taken from PMC11681159, “Bee pollen peptides as potent tyrosinase inhibitors with anti-melanogenesis effects in murine b16f10 melanoma cells and zebrafish embryos” (Scientific Reports, 2024).
